Assay [1] deals with T1, ERK-1 kinase (Homo sapiens, UniProt P27361).
T1 construct: purchased Invitrogen PV3311
Briefly: Inhibition of ERK-1 kinase activity (LANCE Ultra TR-FRET). The class given is biochemical. Conditions: ERK1 enzyme 0.4 nM, ATP 38.15 μM. As for the experimental part:
(§1) The object of this test example is to determine the inhibition effect of the compound on ERK-1 kinase activity. In vitro ERK-1 kinase analysis was carried out by using LANCE Ultra (Perkin Elmer) method. The reaction (reaction system 10 μL) was conducted by adding 2.5 μL of test compound/DMSO (final 4%, V/V, diluted to 10 concentrations (400 nM to 0.02 nM) using a 1:3 dilution scheme), 5 μL of a mixed solution of ERK1 enzyme (Invitrogen, # PV3311, final concentration: 0.4 nM) and substrate Ulight-MBP peptide (Perkin Elmer, # TRF0109-M, final concentration: 0.5 μM) formulated with a kinase buffer (50 mM Hepes pH 7.4, 10 mM MgCl2, 1 mM EGTA, 0.01% Triton X-100, 2 mM DTT) and 2.5 μL of ATP solution (Invitrogen, # PV3227, final concentration: 38.15 μM) formulated with the same buffer successively to a 384-well plate (Perkin Elmer OPTIPLATE™) and mixing well. The reaction mixture was incubated at room temperature for 60 minutes. The reaction was stopped by adding 1× LANCE Detection buffer (PerkinElmer # CR97-100) diluted with ultra-pure water, mM EDTA (Invitrogen #15575038) and 1 nM Eu-anti-p-MBP (PerkinElmer # TRF0201-M) antibody in 10 μL/well. The plate was incubated at room temperature for 60 minutes. Excitation reading was performed on Synergy H1 Hybird Reader, H1MFD (Biotek) with an excitation wavelength of 320 nm. TR-FRET rate was calculated by dividing the acceptor emission signal (signal value at 665 nM) by the Eu donor emission signal (signal value at 615 nM). The inhibition TR-FRET rate of the well treated by the compound was calculated relative to the Max signal (DMSO control) and Min signal (no enzyme added) control wells on the plate {% inhibition rate=100−[(test compound−Min average)]/(Max average−Min average)×100}. The 10 concentrations of the compound after 4-fold dilution of the reaction system were 100 nM to 0.005 nM. Abs_IC50 value was calculated by using GraphPad prism fits percentage inhibition rate and ten-point concentration data in a 4-parameter non-linear logic formula.
In general terms: In TR-FRET formats the signal depends on donor and acceptor labels being close together.

In assay [2] the test system is pancreatic cancer tumor cell Mia Paca 2. Description: Inhibition of tumor cell proliferation (CellTiter-Glo). It counts as cell-based. Conditions: Homo sapiens, Miapaca-2 cell, 3-7 days. As for the experimental part: The object of this test example is to determine the inhibition effect of the present compound on tumor cell proliferation activity. The inhibition activity of the compound on tumor cell proliferation was determined by CellTiter-Glo method, and the half inhibitory concentration IC50 of the compound for inhibiting cell proliferation activity was obtained, 50-100 μL of tumor cell suspension was inoculated in a 96-well cell culture plate with a density of 1˜5*10^4 cells/ml. The plate was incubated in an incubator for 16˜24 hours (37° C., 5% CO2). Solutions of test compounds at different concentrations obtained by gradient dilution were added to the cells in the plate. The plate was incubated in an incubator for 3-7 days (37° C., 5% CO2), 50˜100 μL of CellTiter-Glo reagent was added to each well. The plate was shaked for 10 minutes, and left to stand at room temperature for 10 minutes. The value of the chemiluminescence signal was determined by a microplate reader. The inhibition rate was calculated from the value of the chemiluminescence signal. IC50 of the compound was obtained by curve fitting based on the inhibition rate at different concentrations.
The inhibition effect of the present compound on pancreatic cancer tumor cell Mia Paca 2 proliferation activity was determined by the test, and the obtained IC50 value is shown in Table 2.
In general terms: Cellular ATP, detected with luciferase, serves as a proxy for viable cell number.

Assay [3] concerns the target T2, ERK-2 kinase (Homo sapiens, UniProt P28482).
T2 construct: purchased Invitrogen PV3313
Description: Inhibition of ERK-2 kinase activity (LANCE Ultra TR-FRET). The class given is biochemical. The following applies: ERK-2 enzyme 0.08 nM, ATP 38.15 μM. As for the experimental part: as §1, with “ERK-2” for “ERK-1”, “ERK-2” for “ERK1”, “PV3313,” for “PV3311,”, “0.08” for “0.4”, “EGTA” for “EGTA,”, “IX” for “1×”

As a reminder, the IC50 is the concentration that inhibits the measured activity by half.

T1 sequence (P27361 whole entry): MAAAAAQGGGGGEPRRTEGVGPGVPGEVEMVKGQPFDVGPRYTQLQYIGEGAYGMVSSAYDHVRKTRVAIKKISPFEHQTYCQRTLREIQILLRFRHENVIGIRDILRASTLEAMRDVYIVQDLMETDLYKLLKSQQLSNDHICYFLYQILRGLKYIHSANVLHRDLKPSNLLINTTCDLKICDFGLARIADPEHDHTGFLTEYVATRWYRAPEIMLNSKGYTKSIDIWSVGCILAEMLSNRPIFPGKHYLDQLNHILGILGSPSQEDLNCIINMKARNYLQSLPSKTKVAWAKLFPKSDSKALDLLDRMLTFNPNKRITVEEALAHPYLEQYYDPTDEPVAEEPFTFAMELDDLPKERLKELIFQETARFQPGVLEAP
T2 sequence (P28482 whole entry): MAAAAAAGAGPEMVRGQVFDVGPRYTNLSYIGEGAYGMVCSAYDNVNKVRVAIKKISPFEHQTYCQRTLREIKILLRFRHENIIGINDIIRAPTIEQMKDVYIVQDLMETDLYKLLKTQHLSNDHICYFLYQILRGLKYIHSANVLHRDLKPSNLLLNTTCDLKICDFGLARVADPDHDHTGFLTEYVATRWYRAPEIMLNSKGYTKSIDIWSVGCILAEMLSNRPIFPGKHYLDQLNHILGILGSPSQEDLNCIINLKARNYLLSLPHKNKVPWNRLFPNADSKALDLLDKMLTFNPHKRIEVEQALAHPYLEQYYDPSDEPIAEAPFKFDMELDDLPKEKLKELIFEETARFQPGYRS

Turning to `C[C@@H](NC(=O)c1nc2cc3c(-c4ccncc4)n[nH]c3cc2[nH]1)c1cccc(Br)c1` [Example 18, (R)—N-(1-(3-bromophenyl)ethyl)-3-(pyridin-4-yl)-1,7-dihydroimidazo[4,5-f]indazole-6-carboxamide], the IC50 in assay [1] is 0.45 nM; in assay [2], 110 nM; in assay [3], 0.51 nM.
For `C[C@H](CNC(=O)c1nc2cc3c(-c4ccncc4)n[nH]c3cc2[nH]1)c1ccccc1` [Example 67, (S)—N-(2-phenylpropyl)-3-(pyridin-4-yl)-1,7-dihydroimidazo[4,5-f]indazole-6-carboxamide], the IC50 was 1.44 nM in assay [1] and 0.69 nM in assay [3].
On the same counts, the results for `O=C(NC(CCO)c1ccccc1)c1nc2cc3c(-c4ccncc4)n[nH]c3cc2[nH]1` (stereo not shown) [Example 71, N-(3-hydroxy-1-phenylpropyl)-3-(pyridin-4-yl)-1,7-dihydroimidazo[4,5-f]indazole-6-carboxamide] are 2.18 nM and 0.8 nM.
Taken in the same sequence, the figures for `O=C(CNC(=O)c1nc2cc3c(-c4ccncc4)n[nH]c3cc2[nH]1)c1ccccc1` [Example 72, N-(2-oxo-2-phenylethyl)-3-(pyridin-4-yl)-1,7-dihydroimidazo[4,5-f]indazole-6-carboxamide] were 2.5 nM and 0.24 nM.
For the compound `O=C(NNc1ccccc1)c1nc2cc3c(-c4ccncc4)n[nH]c3cc2[nH]1` [Example 76, N′-phenyl-3-(pyridin-4-yl)-1,7-dihydroimidazo[4,5-f]indazole-6-carbohydrazide], the IC50 came to 0.25 nM in assay [1] and 0.08 nM in assay [3].
On the same counts, the results for `CN(NC(=O)c1nc2cc3c(-c4ccncc4)n[nH]c3cc2[nH]1)c1ccccc1` [Example 77, N′-methyl-N′-phenyl-3-(pyridin-4-yl)-1,7-dihydroimidazo[4,5-f]indazole-6-carbohydrazide] are 2.18 nM and 0.85 nM.
Taken in the same sequence, the figures for `COC(CNC(=O)c1nc2cc3c(-c4ccncc4)n[nH]c3cc2[nH]1)c1ccccc1` (stereo not shown) [Example 78, N-(2-methoxy-2-phenylethyl)-3-(pyridin-4-yl)-1,7-dihydroimidazo[4,5-f]indazole-6-carboxamide] were 0.65 nM and 0.21 nM.
For the compound `COc1ccc(-c2n[nH]c3cc4[nH]c(C(=O)N[C@H](C)c5ccccc5)nc4cc23)cn1` [Example 84, (R)-3-(6-methoxypyridin-3-yl)-N-(1-phenylethyl)-1,7-dihydroimidazo[4,5-f]indazole-6-carboxamide], the 50% inhibitory concentration (IC50) in assay [1] came to 2.61 nM; in assay [3], 0.93 nM.
As for `CC(C)Oc1ccc(-c2n[nH]c3cc4[nH]c(C(=O)N[C@H](C)c5ccccc5)nc4cc23)cn1` [Example 85, (R)-3-(6-isopropoxypyridin-3-yl)-N-(1-phenylethyl)-1,7-dihydroimidazo[4,5-f]indazole-6-carboxamide], the IC50 in assay [1] was 3.43 nM; in assay [3], 3.08 nM.
For `COc1cc(-c2n[nH]c3cc4[nH]c(C(=O)N[C@H](C)c5ccccc5)nc4cc23)ccn1` [Example 86, (R)-3-(2-methoxypyridin-4-yl)-N-(1-phenylethyl)-1,7-dihydroimidazo[4,5-f]indazole-6-carboxamide], the IC50 was 2.4 nM in assay [1] and 1.33 nM in assay [3].
Regarding `C[C@@H](NC(=O)c1nc2cc3c(-c4ccncc4)n[nH]c3cc2[nH]1)c1cccc(C2CC2)c1` [Example 88, (R)—N-(1-(3-cyclopropylphenyl)ethyl)-3-(pyridin-4-yl)-1,7-dihydroimidazo[4,5-f]indazole-6-carboxamide], the IC50 was 2.27 nM in assay [1] and 0.99 nM in assay [3].
In the case of `O=C(N[C@H](CNCC(F)F)c1ccccc1)c1nc2cc3c(-c4ccncc4)n[nH]c3cc2[nH]1` [Example 89, (S)—N-(2-((2,2-difluoroethyl)amino)-1-phenylethyl)-3-(pyridin-4-yl)-1,7-dihydroimidazo[4,5-f]indazole-6-carboxamide], the IC50 in assay [1] stood at 1.31 nM; in assay [3], 0.87 nM.
`CN(C)C[C@@H](NC(=O)c1nc2cc3c(-c4ccncc4)n[nH]c3cc2[nH]1)c1ccccc1` [Example 90, (S)—N-(2-(dimethylamino)-1-phenylethyl)-3-(pyridin-4-yl)-1,7-dihydroimidazo[4,5-f]indazole-6-carboxamide]: the figures for the half-maximal inhibitory concentration (IC50) in assay [1] and in assay [3] were 1.77 nM and 1.67 nM, respectively.
Taken in the same sequence, the figures for `C[C@@H](NC(=O)c1nc2cc3c(C4=CCC(=O)CC4)n[nH]c3cc2[nH]1)c1ccccc1` [Example 94, (R)-3-(4-oxocyclohex-1-en-1-yl)-N-(1-phenylethyl)-1,7-dihydroimidazo[4,5-f]indazole-6-carboxamide] were 2.24 nM and 5.85 nM.
Take `COc1ccc(-c2n[nH]c3cc4[nH]c(C(=O)N[C@H](C)c5ccccc5)nc4cc23)cc1` [Example 95, (R)-3-(4-methoxyphenyl)-N-(1-phenylethyl)-1,7-dihydroimidazo[4,5-f]indazole-6-carboxamide]: the results for the IC50 in assay [1] and in assay [3] were 4.42 nM and 2.17 nM, respectively.
`C[C@@H](NC(=O)c1nc2cc3c(-c4cc[n+]([O-])cc4)n[nH]c3cc2[nH]1)c1ccccc1` [Example 97, (R)-4-(6-((1-phenylethyl)carbamoyl)-1,7-dihydroimidazo[4,5-f]indazol-3-yl)pyridine-N-oxide]: the 50% inhibitory concentration (IC50) in assay [1] came to 0.75 nM; in assay [3] it was 0.3 nM.
Taken in the same sequence, the figures for `CC(C)c1cccc([C@@H](C)NC(=O)c2nc3cc4c(-c5ccncc5)n[nH]c4cc3[nH]2)c1` [Example 98, (R)—N-(1-(3-Isopropylphenyl)ethyl)-3-(pyridin-4-yl)-1,7-dihydroimidazo[4,5-f]indazole-6-carboxamide] were 3.32 nM and 1.02 nM.
For `O=C(NCc1ccccc1)c1nc2cc3c(-c4ccncc4)n[nH]c3cc2[nH]1` [Example 114, N-benzyl-3-(pyridin-4-yl)-1,7-dihydroimidazo[4,5-f]indazole-6-carboxamide], the results for the IC50 in assay [1] and in assay [3] were 2.86 nM and 1.07 nM, respectively.

Source of the values: US20200247815A1, “PYRAZOLYL-CONTAINING TRICYCLIC DERIVATIVE, PREPARATION METHOD THEREFOR AND USE THEREOF” (Jiangsu Hansoh Pharmaceutical Group Co., Ltd., priority 2017, published 2020).
